Data from patent US20240158446A1, “CYCLIC COMPOUND HAVING SELECTIVE INHIBITORY ACTION ON KRAS OVER HRAS AND NRAS” (CHUGAI SEIYAKU KABUSHIKI KAISHA, priority 2021, published 2024).

How the values were obtained:
[1] = molecular target: GDP-bound KRAS wild-type protein (Homo sapiens, UniProt P01116); test: Binding to KRAS by surface plasmon resonance (SPR), Single Cycle Kinetics; conditions: SPR, Single Cycle Kinetics, 1:1 binding model; GDP-bound KRAS wild-type protein; read-out: KRAS KD
[2] = molecular target: GDP-bound NRAS wild-type protein (Homo sapiens, UniProt P01111); test: Binding to NRAS by surface plasmon resonance (SPR), Single Cycle Kinetics; conditions: SPR; GDP-bound NRAS wild-type protein vs GDP-bound KRAS wild-type protein; KD ratio class
[3] = molecular target: GDP-bound HRAS wild-type protein (Homo sapiens, UniProt P01112); test: Binding to HRAS by surface plasmon resonance (SPR), Single Cycle Kinetics; conditions: SPR; GDP-bound HRAS wild-type protein vs GDP-bound KRAS wild-type protein; KD ratio class
[4] = test system: human lung cancer strain NCI-H441;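 further: cell proliferation inhibition after four days measured by CellTiter-Glo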

Sequence of GDP-bound HRAS wild-type protein (P01112 whole entry): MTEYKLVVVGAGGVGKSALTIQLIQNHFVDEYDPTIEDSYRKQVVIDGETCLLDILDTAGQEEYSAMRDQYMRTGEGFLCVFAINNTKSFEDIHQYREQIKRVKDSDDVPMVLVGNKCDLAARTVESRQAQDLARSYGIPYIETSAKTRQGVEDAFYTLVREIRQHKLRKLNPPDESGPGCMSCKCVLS
Sequence of GDP-bound KRAS wild-type protein (P01116 whole entry): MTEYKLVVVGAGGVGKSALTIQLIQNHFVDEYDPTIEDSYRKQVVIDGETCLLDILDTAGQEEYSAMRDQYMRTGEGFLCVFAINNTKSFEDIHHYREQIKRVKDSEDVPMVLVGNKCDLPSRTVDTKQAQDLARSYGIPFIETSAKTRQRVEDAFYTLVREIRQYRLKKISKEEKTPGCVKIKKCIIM
Sequence of GDP-bound NRAS wild-type protein (P01111 whole entry): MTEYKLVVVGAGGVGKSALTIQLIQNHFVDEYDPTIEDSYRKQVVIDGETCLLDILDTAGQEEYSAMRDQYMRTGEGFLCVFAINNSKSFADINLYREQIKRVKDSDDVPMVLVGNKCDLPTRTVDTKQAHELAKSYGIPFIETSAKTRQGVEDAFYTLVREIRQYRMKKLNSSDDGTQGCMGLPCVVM

| Kd [1] [nM] | IC50 [4] [nM] | SMILES | NRAS/KRAS (ratio of KD value for NRAS to KD value for KRAS) [2] | HRAS/KRAS (ratio of KD value for HRAS to KD value for KRAS) [3] |
| --- | --- | --- | --- | --- |
| 1.1 | 92.5 | CCO[C@@H]1C[C@H]2C(=O)NC3(CCC3)C(=O)N(C)[C@@H](C(CC)CC)C(=O)N(C)[C@H](C(=O)N(C)C)CC(=O)N(C)[C@@H](CC(C)C)C(=O)N[C@@H]([C@@H](C)CC)C(=O)N(C)CC(=O)N(C)[C@H]3C/C=C\CCN(C3=O)[C@@H](Cc3ccc(C(F)(F)F)cc3)C(=O)N(C)CC(=O)N[C@@H](CCc3ccc4sccc4c3)C(=O)N2C1 [PP1225] | AA (a compound having 20 or more is denoted as AA) | A (a compound having 10 or more and less than 20 is denoted as A) |
| 2.4 | 106 | CCCCCC[C@H]1C(=O)N[C@@H]([C@@H](C)CC)C(=O)N(C)CC(=O)N(C)[C@H]2C/C=C\CCN(C2=O)[C@@H](Cc2ccc(C(F)(F)F)cc2)C(=O)N(C)CC(=O)N[C@@H](CCc2ccc3sccc3c2)C(=O)N2C[C@H](OCC)C[C@H]2C(=O)NC2(CCC2)C(=O)N(C)[C@@H](C(CC)CC)C(=O)N(C)[C@H](C(=O)N(C)C)CC(=O)N1C [PP1226] | AA (a compound having 20 or more is denoted as AA) | A (a compound having 10 or more and less than 20 is denoted as A) |
| 1.6 | 128 | CCO[C@@H]1C[C@H]2C(=O)NC3(CCC3)C(=O)N(C)[C@@H](C(CC)CC)C(=O)N(C)[C@H](C(=O)N(C)C)CC(=O)N(C)[C@@H](CC3CC3)C(=O)N[C@@H]([C@@H](C)CC)C(=O)N(C)CC(=O)N(C)[C@H]3C/C=C\CCN(C3=O)[C@@H](Cc3ccc(C(F)(F)F)cc3)C(=O)N(C)CC(=O)N[C@@H](CCc3ccc4sccc4c3)C(=O)N2C1 [PP1227] | A (a compound having 10 or more and less than 20 is denoted as A) | A (a compound having 10 or more and less than 20 is denoted as A) |
| 1.3 | 144 | CCO[C@@H]1C[C@H]2C(=O)NC3(CCC3)C(=O)N(C)[C@@H](C(CC)CC)C(=O)N(C)[C@H](C(=O)N(C)C)CC(=O)N(C)[C@@H](COC)C(=O)N[C@@H]([C@@H](C)CC)C(=O)N(C)CC(=O)N(C)[C@H]3C/C=C\CCN(C3=O)[C@@H](Cc3ccc(C(F)(F)F)cc3)C(=O)N(C)CC(=O)N[C@@H](CCc3ccc4sccc4c3)C(=O)N2C1 [PP1229] | A (a compound having 10 or more and less than 20 is denoted as A) | A (a compound having 10 or more and less than 20 is denoted as A) |
| 0.77 | 110 | CCO[C@@H]1C[C@H]2C(=O)NC3(CCC3)C(=O)N(C)[C@@H](C(CC)CC)C(=O)N(C)[C@H](C(=O)N(C)C)CC(=O)N(C)[C@@H](CC)C(=O)N[C@@H]([C@@H](C)CC)C(=O)N(C)CC(=O)N(C)[C@H]3C/C=C\CCN(C3=O)[C@@H](Cc3ccc(C(F)(F)F)cc3)C(=O)N(C)CC(=O)N[C@@H](CCc3cc(F)c(Cl)c(F)c3)C(=O)N2C1 [PP1230] | A (a compound having 10 or more and less than 20 is denoted as A) | A (a compound having 10 or more and less than 20 is denoted as A) |
| 0.56 | 23.1 | CCC[C@H]1C(=O)N[C@@H]([C@@H](C)CC)C(=O)N(C)CC(=O)N(C)[C@H]2C/C=C\CCN(C2=O)[C@@H](Cc2ccc(C(F)(F)F)cc2)C(=O)N(C)CC(=O)N[C@@H](CCc2cc(F)c(Cl)c(F)c2)C(=O)N2C[C@H](OCC)C[C@H]2C(=O)NC2(CCC2)C(=O)N(C)[C@@H](C(CC)CC)C(=O)N(C)[C@H](C(=O)N(C)C)CC(=O)N1C [PP1231] | AA (a compound having 20 or more is denoted as AA) | A (a compound having 10 or more and less than 20 is denoted as A) |
